# Assay results taken from patent publication US20070276045A1, “Anti-Bacterial Compounds” (priority 2004, published 2007).
# Like-named read-outs stand apart in the source and are kept apart here.
# Key:
# Escherichia coli DSM 682 = assay: Bacteriostatic activity (MIC), microtiter broth turbidity; type: cell-based; conditions: read-out: MIC (minimal inhibitory concentration)
# Text: (§1) The bacteriostatic effects of the compounds of the present invention are compared with those of known anti-bacterial agents against human skin bacteria. Typical bacteria (Corynebacterium and Staphylococcus strains) isolated from the human axilla and commercially available strains are used.
# (§2) The different axilla bacteria are isolated from the human axilla according to techniques known in the art, in particular according to standard microbiological practice. They are taxonomically identified by cell morphology, gram-reaction and biochemical tests included in the Api coryne test kit (BioMerieux, France). Strain Staphylococcus epidermidis Ax25 is identified by fatty acid methyl ester analysis (FAME; German type strain collection DSMZ, Germany) . […] The strains are maintained on Tryptic soy broth plates, this standard medium being supplemented with 5 g per Litre of Polyoxyethylene Sorbitan Monooleate (Tween™ 80). Plates are incubated at 36° C. for a period of 48 hours. The bacteria are then swabbed from the plates and suspended in 4 ml of Muller-Hinton broth supplemented with 100 mg of Tween™ 80 per Litre (MH-Tween) and incubated again at 36° C. for 16 hours. Following incubation the bacterial suspensions are diluted in MH-Tween to obtain a final cell density of 10^7 colony forming units per ml. These diluted suspensions of the different test organisms are distributed to different columns of a microtiter plate, 100 μl per well. The test compounds are dissolved in dimethylsulfoxide (DMSO) at various test concentrations and 2.5 μl of these different DMSO solutions are added to the different wells of the test plates. The plates are covered with plastic films and incubated for 24 h at 36° C. with shaking at 250 rpm. The turbidity developing in the microtiter platesi then examined after 24 h to determine microbial growth.
# [1] = tested on: Staphylococcus aureus DSM 799; assay: as above; type: cell-based; conditions: read-out: MIC (minimal inhibitory concentration)
# Text: as §1, §2
# S. epidermidis Ax 25 [2] = assay: as above; type: cell-based; conditions: Staphylococcus epidermidis, read-out: MIC (minimal inhibitory concentration)
# Text: as §1, §2
# C. xerosis DSM 20170 [3] = assay: as above; type: cell-based; conditions: Corynebacterium xerosis, read-out: MIC (minimal inhibitory concentration)
# Text: as §1, §2
# Corynebacterium Ax 7 [4] = assay: as above; type: cell-based, Corynebacterium group G; conditions: read-out: MIC (minimal inhibitory concentration)
# Text: as §1, §2
# Corynebacterium Ax 15 [5] = assay: as above; type: cell-based, Corynebacterium jeikeium; conditions: read-out: MIC (minimal inhibitory concentration)
# Text: as §1, §2
# Corynebacterium Ax 7 [6] = assay: Bactericidal activity (MBC), 60 min contact; type: cell-based, Corynebacterium group G; conditions: AX7, 1 h, inoculum completely killed after 60 min incubation, read-out: MBC (minimal bactericidal concentration)
# Text: (§3) The different axilla bacteria are isolated from the human axilla according to techniques known in the art, in particular according to standard microbiological practice. They are taxonomically identified by cell morphology, gram-reaction and biochemical tests included in the Api coryne test kit (BioMerieux, France). Strain Staphylococcus epidermidis Ax25 is identified by fatty acid methyl ester analysis (FAME; German type strain collection DSMZ, Germany) . Escherichia coli DSM 682, Staphylococcus aureus DSM 799, and Corynebacterium xerosis DSM 20170 are obtained from the German-type strain collection. The strains are maintained on Tryptic soy broth plates, this standard medium being supplemented with 5 g per Litre of Polyoxyethylene Sorbitan Monooleate (TweenTM 80). Plates are incubated at 36° C. for a period of 48 hours. The bacteria are then swabbed from the plates and suspended in 4 ml of Muller-Hinton broth supplemented with 100 mg of TweenTM 80 per Litre (MH-Tween) and incubated again at 36° C. for 16 hours. Following incubation the bacterial suspensions are diluted in MH-Tween to obtain a final cell density of 10^7 colony forming units per ml. These diluted suspensions of the different test organisms are distributed to different columns of a microtiter plate, 100 μl per well. The test compounds are dissolved in dimethylsulfoxide (DMSO) at various test concentrations and 2.5 μl of these different DMSO solutions are added to the different wells of the test plates. The plates are covered with plastic films and incubated for 24 h at 36° C. with shaking at 250 rpm. The turbidity developing in the microtiter […] examined after 24 h to determine microbial growth. […] The bacteria are grown, harvested and diluted under the same conditions as described in the example above and added to microtiter plates (100 μl per well), each well containing 2.5 μl of the different DMSO solutions as described above. After 60 min incubation, 0.5 μl of the bacterial culture from each well (corresponding to 5×10^3 cfu in the control treatment) is transferred to a fresh microtiter plate which contained 100 μl per well of fresh medium. The plates are covered with plastic films and incubated for 24 h at 36° C. with shaking at 250 rpm. The turbidity developing in the microtiter plates is then examined after 24 h to determine microbial growth. The minimal concentration of test compounds which completely killed the bacterial inoculum is determined as the minimal bactericidal concentration (MBC).
# Corynebacterium Ax 15 [7] = assay: Bactericidal activity (MBC), 60 min contact; type: cell-based, Corynebacterium jeikeium; conditions: AX15, 1 h, inoculum completely killed after 60 min incubation, read-out: MBC (minimal bactericidal concentration)
# Text: as §3
# S. epidermidis Ax 25 [8] = assay: Bactericidal activity (MBC), 60 min contact; type: cell-based; conditions: Staphylococcus epidermidis, AX25, 1 h, inoculum completely killed after 60 min incubation, read-out: MBC (minimal bactericidal concentration)
# Text: as §3
# C. xerosis DSM 20170 [9] = assay: Bactericidal activity (MBC), 60 min contact; type: cell-based; conditions: Corynebacterium xerosis, DSM20170, 1 h, inoculum completely killed after 60 min incubation, read-out: MBC (minimal bactericidal concentration)
# Text: as §3
# [10] = Staphylococcus aureus, DSM799, 24 h
# [11] = DSM682, Escherichia coli DSM 682, growth inhibited by at least 80%, 24 h at 36° C.
# [12] = DSM799, Staphylococcus aureus DSM 799, growth inhibited by at least 80%, 24 h at 36° C.
# [13] = AX25, S. epidermidis Ax 25, growth inhibited by at least 80%, 24 h at 36° C.
# [14] = DSM20170, C. xerosis DSM 20170, growth inhibited by at least 80%, 24 h at 36° C.
# [15] = AX7, Corynebacterium Ax 7, growth inhibited by at least 80%, 24 h at 36° C.
# [16] = AX15, Corynebacterium Ax 15, growth inhibited by at least 80%, 24 h at 36° C.
SMILES,"MIC (Escherichia coli DSM 682; Escherichia coli, DSM682, 24 h) [µg/mL]","MIC [1, 10] [µg/mL]","MIC (S. epidermidis Ax 25 [2]; AX25, 24 h) [µg/mL]","MIC (C. xerosis DSM 20170 [3]; DSM20170, 24 h) [µg/mL]","MIC (Corynebacterium Ax 7 [4]; Corynebacterium, AX7, 24 h) [µg/mL]","MIC (Corynebacterium Ax 15 [5]; Corynebacterium, AX15, 24 h) [µg/mL]",MIC (Escherichia coli DSM 682; [11]) [µg/mL],"MIC [1, 12] [µg/mL]",MIC (S. epidermidis Ax 25 [2]; [13]) [µg/mL],MIC (C. xerosis DSM 20170 [3]; [14]) [µg/mL],MIC (Corynebacterium Ax 7 [4]; [15]) [µg/mL],MIC (Corynebacterium Ax 15 [5]; [16]) [µg/mL],MBC (Corynebacterium Ax 7 [6]) [µg/mL],MBC (Corynebacterium Ax 15 [7]) [µg/mL],MBC (S. epidermidis Ax 25 [8]) [µg/mL],MBC (C. xerosis DSM 20170 [9]) [µg/mL]
"CCCCCCCCCCCC(=O)OCC(O)CO (stereo not drawn) [C1, Dodecanoic acid 2,3-dihydroxy-propyl ester, reference compound]",> 5000,80,< 80,320,160,1250,–,–,–,–,–,–,–,–,–,–
"CCCCC(CC)COCC(O)CO (stereo not drawn) [C2, 3-(2-Ethyl-hexyloxy)-propane-1,2-diol, reference compound]",630,630,1250,630,1250,1250,–,–,–,–,–,–,–,–,–,–
"CC(C)=CCCC(C)=CCCC(C)=CCO [C3, Farnesol, reference compound]",–,–,–,–,–,–,> 10000,160,160,80,140,160,–,–,–,–
"Oc1cc(Cl)ccc1Oc1ccc(Cl)cc1Cl [C4, Triclosan, reference compound]",5,5,0.15,15,30,30,–,–,–,–,–,–,–,–,–,–
"CC(COCC(=O)O)Cc1ccc(C(C)(C)C)cc1 (stereo not drawn) [compound 1, [3-(4-tert.-Butyl-phenyl)-2-methyl-propoxy]-acetic acid]",–,–,–,–,–,–,2500,625,625,313,625,1250,2500,≥ 5000,≥ 5000,2500
"CCCCC(CC)COCC(=O)O (stereo not drawn) [compound 4, (2-Ethyl-hexyloxy)-acetic acid]",–,–,–,–,–,–,2500,625,625,884,1250,1250,2500,≥ 5000,≥ 5000,≥ 5000
"CCCCCCC(CCCC)COCC(=O)O (stereo not drawn) [compound 5, (2-Butyl-octyloxy)-acetic acid]",–,–,–,–,–,–,> 2500,160,160,80,160,310,1250,> 2500,> 2000,> 2500
"CCCCCCCCC(CCCCCC)COCC(=O)O (stereo not drawn) [compound 6, (2-Hexyl-decyloxy)-acetic acid]",–,–,–,–,–,–,> 2500,5,5,4,5,5,20,40,20,40
"CCCCC(CC)C(=O)OCC(=O)O (stereo not drawn) [compound 7, 2-Ethyl-hexanoic acid carboxymethyl ester]",–,–,–,–,–,–,2500,1250,1250,1250,1250,1250,> 2500,> 2500,> 2500,> 2500
"CCCCCCC(CCCC)C(=O)OCC(=O)O (stereo not drawn) [compound 8, 2-Butyl-octanoic acid carboxymethyl ester]",–,–,–,–,–,–,2500,80,1250,80,160,80,1250,2500,1250,2500
"CCCCCCCCC(CCCCCC)C(=O)OCC(=O)O (stereo not drawn) [compound 9, 2-Hexyl-decanoic acid carboxymethyl ester]",–,–,–,–,–,–,> 2500,5,10,7,5,5,40,80,40,80
"CCCCCCC(CCCC)C(=O)NCC(=O)O (stereo not drawn) [compound 10, (2-Butyl-octanoylamino)-acetic acid]",–,–,–,–,–,–,1250,1250,1250,630,1250,1250,1250,> 2500,2500,2500
"CCCCCCCCC(CCCCCC)C(=O)NCC(=O)O (stereo not drawn) [compound 11, (2-Hexyl-decanoylamino)-acetic acid]",–,–,–,–,–,–,≥ 5000,55,39,≤ 19,≤ 19,78,156,313,≥ 5000,313
